Experimental data from patent publication US6026817A, “Method of treating the syndrome of coronary heart disease risk factors in humans” (priority 1998, dated 2000).
“And” between values parts separate entries of the source, which are not always exact repeats. Equal entries are not always repeated.

Columns and labels:
[1] = system: insulin resistant subject one; assay: Example II: CHMMO given to an insulin resistant subject, blood values and liver enzymes; format: in vivo, human
Experimental: A insulin resistant subject was given 17-cyclopropylmethyl-3-hydroxy-14-methoxy-8β-methylmorphinan-6-one hydrochloride (CEMMO), a pure opioid antagonist, in two daily doses of 18 mg each for the duration of one week, followed by 9 mg b.i.d. for another 4 weeks.

κ opioid receptor = κ opioid receptor (Homo sapiens, UniProt P41145); assay: biochemical; format: binding; details: prototype ligand EKC
κ opioid receptor, sequence (P41145 whole entry): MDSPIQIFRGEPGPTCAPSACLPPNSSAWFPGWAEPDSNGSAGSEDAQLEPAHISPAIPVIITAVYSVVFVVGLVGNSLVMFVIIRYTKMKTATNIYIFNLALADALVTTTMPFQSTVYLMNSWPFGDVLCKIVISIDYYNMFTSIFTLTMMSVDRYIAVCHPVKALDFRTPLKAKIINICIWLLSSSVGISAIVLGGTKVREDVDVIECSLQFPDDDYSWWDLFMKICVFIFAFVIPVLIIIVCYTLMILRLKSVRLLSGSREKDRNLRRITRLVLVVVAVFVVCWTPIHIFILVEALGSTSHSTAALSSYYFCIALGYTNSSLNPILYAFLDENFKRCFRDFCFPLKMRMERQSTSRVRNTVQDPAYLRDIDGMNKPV
From the text: (§1) For each receptor there is a prototype ligand. […] For the μ receptor the prototype ligand is DHM (dihydromorphine). For the δ receptor, the prototype ligand is DADLE (D-Ala+D-Leu-Enkephalin), and for the κ receptor, the prototype ligand is EKC (ethylketocyclazocine).

μ opioid receptor = μ opioid receptor (Homo sapiens, UniProt P35372); assay: biochemical; format: binding; details: prototype ligand DHM
μ opioid receptor, sequence (P35372 whole entry): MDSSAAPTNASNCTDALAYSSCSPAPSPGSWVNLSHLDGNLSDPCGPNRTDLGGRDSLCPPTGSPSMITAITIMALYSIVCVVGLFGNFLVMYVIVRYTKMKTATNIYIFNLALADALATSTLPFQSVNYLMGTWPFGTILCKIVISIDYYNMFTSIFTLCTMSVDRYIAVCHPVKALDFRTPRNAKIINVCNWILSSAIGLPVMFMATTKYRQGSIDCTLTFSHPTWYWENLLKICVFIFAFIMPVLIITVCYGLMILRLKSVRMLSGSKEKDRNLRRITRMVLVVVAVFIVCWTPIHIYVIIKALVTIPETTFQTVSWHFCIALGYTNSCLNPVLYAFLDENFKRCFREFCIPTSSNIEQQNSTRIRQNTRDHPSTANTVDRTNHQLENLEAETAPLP
From the text: as §1

δ opioid receptor = δ opioid receptor (Homo sapiens, UniProt P41143); assay: Receptor binding, displacement of prototype ligand DADLE
δ opioid receptor, sequence (P41143 whole entry): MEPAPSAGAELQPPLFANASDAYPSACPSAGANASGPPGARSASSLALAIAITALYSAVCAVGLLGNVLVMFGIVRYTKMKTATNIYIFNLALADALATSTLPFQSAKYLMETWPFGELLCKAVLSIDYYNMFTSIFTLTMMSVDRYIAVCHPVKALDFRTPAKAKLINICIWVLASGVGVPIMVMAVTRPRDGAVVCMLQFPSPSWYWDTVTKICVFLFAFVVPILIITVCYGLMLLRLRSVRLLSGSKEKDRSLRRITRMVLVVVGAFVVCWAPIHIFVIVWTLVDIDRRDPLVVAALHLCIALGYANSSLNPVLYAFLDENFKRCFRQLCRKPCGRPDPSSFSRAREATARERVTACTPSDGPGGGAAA
From the text: as §1

[2] = system: μ, δ, and κ opiate receptors; assay: Ratios of IC50 between opiate receptors; format: binding
From the text: as §1
The relationship between the IC50 levels f or the μ, δ, κ opiate receptors may also be expressed in terms of a ratio.

[3] = system: subject one with Impaired Glucose Tolerance and borderline Type 2 Diabetes; assay: Example III: Nalmefene given to a subject with Impaired Glucose Tolerance, blood values, enzymes, weight, blood pressure; format: in vivo, human; parameters: HgbA1c Δ% (reduction) / C-Peptide Δ% (reduction) / Chol. Total Δ% (reduction) / LDL-C. Δ% (reduction) / TG Δ% (reduction) / FFA Δ% (reduction): concentration or dose not given beside the values
[4] = system: women with polycystic ovary syndrome with Acanthosis Nigrians; details: four women, period of a few days; cited from earlier work
body weight = details: in vivo; cited from earlier work
[5] = Day 41 vs Day 1 (after 5 weeks)
[6] = Day 41 vs Day 1 (after 5 weeks), hydrochloride
[7] = Day 41 vs Day 1 (after 5 weeks), listed as CEMMO, hydrochloride
[8] = day 41 (after 5 weeks), 18 mg b.i.d. one week, then 9 mg b.i.d.
[9] = day 41, 18 mg b.i.d. one week, then 9 mg b.i.d.

Compound CO[C@@]12[C@@H](C)CC(=O)C[C@@]13CCN(CC1CC1)[C@@H]2Cc1ccc(O)cc13.Cl [CHMMO, 17-cyclopropylmethyl-3-hydroxy-14-methoxy-8βmethylmorphinan-6-one hydrochloride] has a Weight ([1]; Day 1) of 82 kg, an Alk-phos ([1]; Day 1, Table III) of 145 U/L and a Weight ([1]; Day 41, 9.0 mg b.i.d.) of 80 kg. The Alk-phos ([1]; Day 41, 9.0 mg b.i.d., Table III) was 126 U/L, the “ALT Δ%” value ([1]; Day 41 vs Day 1) was 31% and the “AST Δ%” value ([1]; Day 41 vs Day 1) was 30%. For the same compound, the “Alk-phos Δ%” value ([1]; Day 41 vs Day 1) was 6%, the “Glucose Δ%” value ([1]; Day 41 vs Day 1) was 14% and the “LD Δ%” value ([1]; Day 41 vs Day 1) was 27%. The “Weight Δ%” value ([1]; Day 41 vs Day 1) was 4.5%, the “Chol. Total Δ% (fall)” value [1, 5] was 21% and the “LDL-C. Δ% (fall)” value [1, 5] was 7%. For the same compound, the “TG Δ% (fall)” value [1, 5] was 42%, the “FFA Δ% (fall)” value [1, 6] was 22.7% and the “HDL-C. Δ% (increase)” value [1, 6] was 16%. The “Insulin Δ% (fall)” value [1, 6] was 50%, the “LDL/HDL Δ% (improvement)” value [1, 6] was 22% and the “FFA Δ% (fall)” value [1, 7] was 23%. The “HDL-C. Δ% (increase)” value [1, 7] was 20%, the “Insulin Δ% (fall)” value [1, 7] was “about 50%” and the “LDL/HDL Δ% (improvement)” value [1, 7] was 23%. The Blood glucose ([1]; after the first week, 18 mg twice daily, remained essentially at the same level) was 95 mg/dL, the ALT ([1]; day 1) was 29 U/L and the AST ([1]; day 1) was 23 U/L. The “CH. T (total cholesterol)” value ([1]; day 1) was 234 mg/dL, the FFA ([1]; day 1) was 0.75 mM/L and the Gluc. ([1]; day 1) was 111 mg/dL. It also gave an HDL ([1]; day 1) of 30 mg/dL, an Insulin ([1]; day 1) of 14 μU/ml and an LD ([1]; day 1) of 162 U/L. It also gave an LDL ([1]; day 1) of 156 mg/dL, an LDL/HDL ([1]; day 1) of 5.2 and a TG ([1]; day 1) of 229 mg/dL. For the same compound, the Alk.-Phos ([1]; day 1, Table II (unit not given)) was 145, the ALT ([1]; day 41) was 20 U/L and the AST ([1]; day 41) was 16 U/L. For the same compound, the LD ([1]; day 41) was 117 U/L, the “CH. T (total cholesterol)” value [1, 8] was 185 mg/dL and the HDL [1, 8] was 36 mg/dL. For the same compound, the Insulin [1, 8] was 6 μU/ml, the LDL [1, 8] was 145 mg/dL and the TG [1, 8] was 133 mg/dL. The LDL/HDL ([1]; day 41 (after 5 weeks), 18 mg b.i.d. one week, then 9 mg b.i.d., hydrochloride) was 4.0 and 4.03, the LDL/HDL ([1]; day 41 (after 5 weeks), 18 mg b.i.d. one week, then 9 mg b.i.d., listed as CEMMO, hydrochloride) was 4.0 and the Alk.-Phos ([1]; day 41, Table II (unit not given)) was 126. The FFA [1, 9] was 0.58 mM/L, the Gluc. [1, 9] was 95 mg/dL and the “drop of blood glucose” value ([1]; during the first week, 18 mg twice daily) was 15%. The FFA ([1]; end of study, after 5 weeks) was 580 μE/L, the Weight ([1]; end of the study) was “slight weight loss” and the FFA ([1]; start of study) was 754 μE/L. The IC50 (κ opioid receptor) was 950 pM, the IC50 (μ opioid receptor) was 500 pM and the IC50 (δ opioid receptor) was 800 pM. The “IC50 κ/ IC50 δ ratio” value [2] was less than 3, the “IC50 κ/ IC50 μ ratio” value [2] was less than 3 and the “δ,κ,μ IC50 being within a factor of” value [2] was no more than 3.
For C=C1CC[C@@]2(O)[C@H]3Cc4ccc(O)c5c4[C@@]2(CCN3CC2CC2)[C@H]1O5 [Nalmefene, 6-desoxy-6-methylene-naltrexone], the ALT ([3]; Day 1) was 72 U/L, the AST ([3]; Day 1) was 31 U/L and the Alk-phos ([3]; Day 1) was 70 U/L. The “Blood Pressure, diastolic” value ([3]; Day 1) was 100, the “Blood Pressure, systolic” value ([3]; Day 1) was 136 and the C-Peptide ([3]; Day 1) was 4.7 ng/mL. For the same compound, the “Chol. Total” value ([3]; Day 1) was 247 mg/dL, the FFA ([3]; Day 1) was 0.68 mM/L and the GG-transp ([3]; Day 1) was 56 U/L. The Glucose ([3]; Day 1) was 138 mg/dL, the HDL-C. ([3]; Day 1) was 37 mg/dL and the HgbA1c ([3]; Day 1) was 6.0%. The Insulin ([3]; Day 1) was 27 μU/ml, the LD ([3]; Day 1) was 125 U/L and the LDL-C. ([3]; Day 1) was 140 mg/dL. It also gave an LDL/HDL ([3]; Day 1) of 3.78, a TG ([3]; Day 1) of 270 mg/dL and a Weight ([3]; Day 1) of 86 kg. It also gave an ALT ([3]; Day 141, 0.5 mg b.i.d.) of 42 U/L, an AST ([3]; Day 141, 0.5 mg b.i.d.) of 16 U/L and an Alk-phos ([3]; Day 141, 0.5 mg b.i.d.) of 72 U/L. The “Blood Pressure, diastolic” value ([3]; Day 141, 0.5 mg b.i.d.) was 83, the “Blood Pressure, systolic” value ([3]; Day 141, 0.5 mg b.i.d.) was 128 and the C-Peptide ([3]; Day 141, 0.5 mg b.i.d.) was 2.9 ng/mL. For the same compound, the “Chol. Total” value ([3]; Day 141, 0.5 mg b.i.d.) was 193 mg/dL, the FFA ([3]; Day 141, 0.5 mg b.i.d.) was 0.41 mM/L and the GG-transp ([3]; Day 141, 0.5 mg b.i.d.) was 32 U/L. For the same compound, the Glucose ([3]; Day 141, 0.5 mg b.i.d.) was 120 mg/dL, the HDL-C. ([3]; Day 141, 0.5 mg b.i.d.) was 40 mg/dL and the HgbA1c ([3]; Day 141, 0.5 mg b.i.d.) was 5.4%. It also gave an Insulin ([3]; Day 141, 0.5 mg b.i.d.) of 16 μU/ml, an LD ([3]; Day 141, 0.5 mg b.i.d.) of 120 U/L and an LDL-C. ([3]; Day 141, 0.5 mg b.i.d.) of 118 mg/dL. The LDL/HDL ([3]; Day 141, 0.5 mg b.i.d.) was 2.95, the TG ([3]; Day 141, 0.5 mg b.i.d.) was 175 mg/dL and the Weight ([3]; Day 141, 0.5 mg b.i.d.) was 79 kg. For the same compound, the “ALT Δ%” value ([3]; Day 141 vs Day 1) was 42%, the “AST Δ%” value ([3]; Day 141 vs Day 1) was 48% and the “Alk-phos Δ%” value ([3]; Day 141 vs Day 1) was 3%. The “Blood Pressure reduction, diastolic” value ([3]; Day 141 vs Day 1) was 17 pts, the “Blood Pressure reduction, systolic” value ([3]; Day 141 vs Day 1) was 8 pts and the “C-Peptide Δ% (reduction)” value ([3]; Day 141 vs Day 1) was 38%. For the same compound, the “Chol. Total Δ% (reduction)” value ([3]; Day 141 vs Day 1) was 22%, the “FFA Δ% (reduction)” value ([3]; Day 141 vs Day 1) was 40% and the “GG-transp Δ%” value ([3]; Day 141 vs Day 1) was 43%. For the same compound, the “Glucose Δ% (reduction in fasting blood glucose)” value ([3]; Day 141 vs Day 1) was 13%, the “HDL-C. Δ% (increase)” value ([3]; Day 141 vs Day 1) was 8% and the “HgbA1c Δ% (reduction)” value ([3]; Day 141 vs Day 1) was 10%. For the same compound, the “Insulin Δ%” value ([3]; Day 141 vs Day 1) was 43%, the “LD Δ%” value ([3]; Day 141 vs Day 1) was 4% and the “LDL-C. Δ% (reduction)” value ([3]; Day 141 vs Day 1) was 16%. The “LDL/HDL Δ% (improvement)” value ([3]; Day 141 vs Day 1) was 22%, the “TG Δ% (reduction)” value ([3]; Day 141 vs Day 1) was 35% and the “Weight Δ% (reduction)” value ([3]; Day 141 vs Day 1) was 8%. The “δ,κ,μ IC50 being within a factor of” value [2] was no more than 10 and the elevated insulin concentrations [4] was “reduced”.
In the case of O=C1CC[C@@]2(O)[C@H]3Cc4ccc(O)c5c4[C@@]2(CCN3CC2CC2)[C@H]1O5 [Naltrexone], the “reduction of body weight” value (body weight) is given as “inconsistent results”.
